Where two headings read alike, the source gives them in different places.

In data set [1] the test system is tumors. In words: Tumor treatment, variation of fibrinogen, drug and VDA amounts. In kind it is in vivo.
Description: One of the components, fibrinogen, was varied from 10 to 150 mg/kg.
In a preferred embodiment, 60 mg PTX/kg and 350 mg fibrinogen/kg are formed into nanoparticles 110-180 nm or 110 to 350 nm in size. Another discovery process requiring extensive experimentation was to find the type of fibrinogen that worked well. […] Various forms and fractions were tested to find a preferable one for tumor targeting.
For data set [2] the following is noted: free drug, literature, cited from earlier work.
Data set [3] has as its system advanced non-squamous non-small-cell lung cancer. The note with it: Phase II, with carboplatin, paclitaxel, and bevacizumab; cited from earlier work.
In the next data set the test system is DNA. Nature of the data set: Nanoparticle targeting of DNA. In kind it is binding. As to conditions: DNA binder incorporated into nanoparticles. The procedure:
(§1) 0.2 mg of acridine yellow G or 0.2 mg of propidium iodide were dissolved in DMSO by heating twice at 80° C. for 2 min. 15 mg albumin was dissolved in 0.4 mL of PBS. While sonicating the albumin solution in an ice bath, the acridine or propidium solutions were slowly over about 10-20 sec injected at the sonicator tip. Sonication was continued for another minute. Clear colored solutions were obtained. Both were filtered through a 0.45 μm filter, all passing through. However, if albumin was not used, the solution containing acridine all was retained by the filter, whereas the propidium solution passed through. Both were purified with 50 kD Amicon centrifugal filters with PBS washing.
(§2) 20 mg of albumin was dissolved in 0.4 mL water and mixed with 0.5 mg of Dox making a clear colored solution. Under sonication and in an ice-water bath, 80 ul of 0.1 M NaOH was slowly injected near the sonicator tip. Next, 10 ul of 8% glutaraldehyde (in water) was added with an additional 5 minutes of sonication producing a clear solution. After 30 min, 30 ul of a 3 M solution of ethanolamine hydrochloride was added. After 30 min, the construct was purified on a 50 kDa centrifugal filter. […] After resuspension of the retentate in PBS the size of the nanoparticles was measured to be 117 nm by dynamic light scattering.

Data set [4] can be described thus: Payload retention / incorporation in protein nanoparticles. In kind it is physicochemical. As to conditions: PBS washing. The procedure: as §1
as §2, with “scattering. […]” for “scattering.”

Data set [5] deals with tumors. The note with it: Pedley et al, 1996; cited from earlier work.
For data set [6] the following is noted: Phase III trials; cited from earlier work.

`CC(=O)O[C@H]1C(=O)[C@@]2(C)[C@H]([C@H](OC(=O)c3ccccc3)[C@]3(O)C[C@H](OC(=O)[C@H](O)[C@@H](NC(=O)c4ccccc4)c4ccccc4)C(C)=C1C3(C)C)[C@]1(OC(C)=O)CO[C@@H]1C[C@@H]2O` [paclitaxel]: in the data set with tumors [1] (60-90 mg PTX/kg in the nanoparticle), the treatment result is “excellent results”. The tolerability result (mouse, in vivo, 90 mg/kg) is reported as “well-tolerated”. Also, the “multiple of the maximum tolerated dose that can be safely administered” value (using the disclosed method) is on record as about 4 times. Further, the “maximum tolerated dose (reported / published)” value in data set [2] was 10 mg/kg; in data set [2] (listed as PTX), 25 mg/kg.

Take `COc1ccc(/C=C\c2cc(OC)c(OC)c(OC)c2)cc1OP(=O)(O)O.NC(CO)(CO)CO` [CA4P, fosbretabulin tromethamine]: in data set [3], the patient benefit entry is listed as “little patient benefit”.

For the compound `CC[N+](C)(CC)CCC[n+]1c(-c2ccccc2)c2cc(N)ccc2c2ccc(N)cc21` [propidium, propidium iodide], the “targeting of necroses / free DNA when included in a nanoparticle” value in the data set on DNA is listed as “failed”. For the same compound, the “retention with albumin on 50 kD Amicon centrifugal filters (stable complex)” value in data set [4] is “came through in the filtrate”.

For `Cc1cc2cc3cc(C)c(N)cc3nc2cc1N` [acridine yellow G], in the data set on DNA, the “targeting of necroses / free DNA when included in a nanoparticle” value is “found to target the nanoparticles to free DNA”. Besides, in data set [4], the “retention with albumin on 50 kD Amicon centrifugal filters (stable complex)” value was “remained in the retentate”.

As for `Cc1ccc2c(=O)c3cccc(CC(=O)O)c3oc2c1C` [DMXAA], the “dose close to optimal” value with tumors [1] (DMXAA as vascular disrupting agent with nanoparticles) was about 18 mg/kg. For the same compound, the “dose leading to excessive toxicity” value (mouse, in vivo) is over 20 mg/kg. For the same compound, in the data set on tumors [5], the “ineffective dose (current teaching)” value is “less than 20 mg/kg” and the “useful dose (current teaching)” value is reported as 27.5 mg/kg. The patient survival entry in data set [6] was “lack of patient gain in survival”.

The values are drawn from patent US20260048022A1, “ENDOTHELIAL DAMAGE AND NANOPARTICLE TARGETING: COMPOSITIONS, PROCESSES, USES” (Nanoprobes, Inc., priority 2022, published 2026).
